Laboratory results reported in patent publication US6630310B1, “Assay for binding between carbohydrate and glycolipid” (Biopolymer Engineering Pharmaceutical, Inc., priority 1996, dated 2003).

What was measured:
[1] = tested on: NF-κB; test: EMSA of NF-κB activation in BMC2.3 cells; assay type: cell-based, murine; details: 3 μg/ml, various times at 37° C. (FIG. 4)
Procedure: (§1) In order to assess the activation of signal transduction as exemplified by the modulation of one or more transcriptional regulatory factors by underivatized, aqueous soluble β(1-3)-glucan, BMC2.3 cells were incubated with 3 μg/ml underivatized, aqueous soluble β(1-3)-glucan for various periods of time at 37° C. Nuclear extracts were prepared and incubated with ^32P-labeled DNA oligonucleotides specific for NF-κB or NF-IL6. The protein-^32P DNA complexes were separated from unbound ^32P DNA by gel electrophoresis (electrophoretic mobility shift assay, EMSA).
(§2) BMC2.3 cells in DMEM plus 10% fetal calf serum were incubated with 3 μg/ml underivatized, aqueous soluble β(1-3)-glucan for various lengths of time. Nuclear extracts were prepared by the method of Dignam et al. (Nuc. Acid Res. 11:1475-1489 (1983)). Nuclear extracts were then incubated with ^32P-labeled DNA oligonucleotide for twenty minutes at room temperature. The sequence of the oligonucleotide used as the probe was […] (SEQ ID NO: 1). The reaction mixture was then separated on a 4% polyacrylamide gel and the results recorded autoradiographically.

[2] = Competition of ^3H-PGG-Glucan binding to lactosyl ceramide in reconstituted membranes (FIG. 14)
Text: FIG. 14 is a graph of the comparison of underivatized, aqueous soluble β(1-3)-glucan and single helix competition of ^3H-underivatized, aqueous soluble β(1-3)-glucan binding in three assay formats. Underivatized, aqueous soluble β(1-3)-glucan or single helix glucan was used at designated concentrations to compete for ^3H-underivatized, aqueous soluble β(1-3)-glucan binding to lactosyl ceramide (LacCer) in a 96-well plate (triangles), or to lactosyl ceramide in reconstituted membranes (squares), or to human leukocyte membranes (circles). Open symbols represent underivatized, aqueous soluble β(1-3) glucan, and closed symbols represent single helix. Maximum competition was assigned at the highest concentration of underivatized, aqueous soluble β(1-3)-glucan used as competitor in each type of assay.
Membranes were prepared from the receptor-negative cell line, U937, and extracted with chloroform/methanol as described above. The upper and lower layers were combined after removal of the proteinaceous interphase and dried under a stream of argon with the sample to be assayed for binding (lactosyl ceramide or fractions from the purification). […]
The dried lipid/sample preparations were resuspended in HBSS (500 μL) by brief sonication, and centrifuged for 10 minutes at 12,000×g. […] Pellets were then dissolved in SOLVABLE™, scintillation fluid was added, and radioactivity was measured.

[3] = tested on: NF-IL6; test: EMSA of NF-IL6 activation in BMC2.3 cells; assay type: cell-based, murine; details: 3 μg/ml, various times at 37° C. (FIG. 5)
Procedure: as §1, §2

[4] = tested on: receptor for underivatized, aqueous soluble β(1-3)-glucan on human leukocyte membranes; test: Competition of ^3H-PGG-Glucan binding to human leukocyte membranes (oil/sucrose binding assay)
Procedure: Aminated glucan was prepared by reductive amination of curdlan and provided by Dr. Rolph Seljelid (University of Tromsφ, Tromsφ, Norway).
At the end of the incubation, 100 μl aliquots of reaction mixture were layered on top of a double layer density gradient consisting of 100 μl dibutyl phthalate (lower layer) and 100 μl 8% sucrose in PBS (upper layer) in 400 μl centrifuge tubes (Brinkman). The tubes were spun at 15,000×g for 4-5 minutes and the tips containing the membrane pellets were removed, incubated in 300 μl SOLVABLE™ (New England Nuclear, Boston, Mass.) overnight at 50° C. to dissolve the pellet, and then radioactivity determined by liquid scintillation counting. […] Alternatively, membranes were centrifuged directly in their incubation tubes at 15,000×g for 4-5 minutes at 37° C., the pellet washed with HBSS, then pellets solubilized and radioactivity determined by liquid scintillation counting.

[5] = tested on: NF-IL6; test: EMSA of NF-IL6 activation in human neutrophils; assay type: cell-based; details: 3 μg/ml, 60 minutes at 37° C., relative to control or dextran (FIG. 16B)
Procedure: Purified human neutrophils were incubated with or without underivatized, aqueous soluble β(1-3)-glucan (3 μg/ml) or dextran (3 μg/ml) for 60 minutes at 37° C. Nuclear extracts were prepared and protein/DNA complex formation assessed by electrophoretic mobility shift assay (EMSA). As shown in FIGS. 16A and 16B, underivatized, aqueous soluble β(1-3)-glucan increased the binding of nuclear extract proteins to an NF-kB or NF-IL6 specific 32P-labeled oligonucleotide probe relative to extracts from either control or dextran-treated neutrophils.
Human neutrophils (4.5×10^6 cells/ml; 10 ml total) purified as described above were incubated in RPMI+10% FCS (Sigma Chemical Co.) for 30 minutes at 37° C. Underivatized, aqueous soluble β(1-3)-glucan or dextran (both at 3 μg/ml) were then added and incubation continued an additional 60 minutes at 37° C. Nothing was added to control cells. At the end of the incubation, cells were washed in ice cold PBS+20 mM EDTA and nuclear extracts prepared and EMSAs performed as described above.

underivatized, aqueous soluble β(1-3)-glucan [PGG-Glucan]
NF-κB protein-^32P DNA complex formation (EMSA, in words) [1]: time dependent increase in protein-DNA complexes
competition for ^3H-underivatized, aqueous soluble β(1-3)-glucan binding to LacCer in the reconstitution assay (in words) [2]: competes
NF-IL6 protein-^32P DNA complex formation (EMSA, in words) [3]: time dependent increase in protein-DNA complexes
competition for ^3H-underivatized, aqueous soluble β(1-3)-glucan binding to HLM (in words) ([4]; FIG. 14): competes
% Control Binding ([4]; addition at 0.1 mg/ml, ^3H-PGG-Glucan binding to human leukocyte membranes): 22%
binding of nuclear extract proteins to NF-IL6 specific 32P-labeled probe (EMSA, in words) [5]: increased
